Measured values reported in ChEMBL document CHEMBL1649251, “Antischistosomal activity of hexadecyloxypropyl cyclic 9-(S)-[3-hydroxy-2-(phosphonomethoxy)propyl]adenine and other alkoxyalkyl esters of acyclic nucleoside phosphonates assessed by schistosome worm killing in vitro” (Antimicrob Agents Chemother, 2009).

How the values were obtained:
Schistosoma mansoni [1] = test: Antischistosomal activity against Schistosoma mansoni isolated from infected Syrian golden hamsters assessed as worm mortality at 100 uM treated for overnight followed by drug washout measured on day 5 relative to control; type: functional
Schistosoma mansoni [2] = test: Antischistosomal activity against Schistosoma mansoni isolated from infected Syrian golden hamsters assessed as worm mortality at 75 uM treated for overnight followed by drug washout measured on day 5 relative to control; type: functional
Schistosoma mansoni [3] = test: Antischistosomal activity against Schistosoma mansoni isolated from infected Syrian golden hamsters assessed as worm mortality at 50 uM treated for overnight followed by drug washout measured on day 5 relative to control; type: functional
Schistosoma mansoni [4] = test: Antischistosomal activity against Schistosoma mansoni isolated from infected Syrian golden hamsters assessed as worm mortality at 25 uM treated for overnight followed by drug washout measured on day 5 relative to control; type: functional
Schistosoma mansoni [5] = test: Antischistosomal activity against Schistosoma mansoni isolated from infected Syrian golden hamsters assessed as worm mortality at 12.5 uM treated for overnight followed by drug washout measured on day 5 relative to control; type: functional
Schistosoma mansoni [6] = test: Antischistosomal activity against Schistosoma mansoni isolated from infected Syrian golden hamsters assessed as worm mortality at 5 uM treated for overnight followed by drug washout measured on day 5; type: functional
Schistosoma mansoni [7] = test: Antischistosomal activity against Schistosoma mansoni isolated from infected Syrian golden hamsters assessed as worm mortality treated for overnight followed by drug washout measured on day 5; type: functional, organism-based; conditions: 120 h

SMILES	Activity (Schistosoma mansoni [1]) [%]	Activity (Schistosoma mansoni [2]) [%]	Activity (Schistosoma mansoni [3]) [%]	Activity (Schistosoma mansoni [4]) [%]	Activity (Schistosoma mansoni [5]) [%]	Activity (Schistosoma mansoni [6]) [%]	EC50 (Schistosoma mansoni [7]) [µM]
CCCCCCCCCCCCCCCCCCOCCOP(=O)(O)CO[C@H](CO)Cn1cnc2c(N)nc(N)nc21	40	40	33	14	8	7	> 100
CCCCCCCCCCCCCCCCOCCCOP1(=O)CO[C@@H](Cn2cnc3c(N)ncnc32)CO1 (stereo partly specified)	93.3	84.6	78.6	69.2	53.8	50	5
CCCCCCCCCCCCCCCCCCOCCOP(=O)(O)CO[C@H](CO)Cn1cnc2c(=O)[nH]c(N)nc21	33	36	20	15	7	13	> 100
CCCCCCCCCCCCCCCCOCCCOP1(=O)CO[C@@H](Cn2ccc(N)nc2=O)CO1 (stereo partly specified)	100	64	67	36	33	13	28
Nc1ncnc2c1ncn2C[C@@H](CO)OCP(=O)(O)O	13	12.5	7	7	6.25	6.7	> 100
CCCCCCCCCCCCCCCCOCCCOP(=O)(O)CO[C@H](CO)Cn1cnc2c(N)ncnc21	30.8	28.6	32.3	18.8	12.5	6.25	> 100
CCCCCCCCCCCCCCCCCCOCCOP(=O)(O)CO[C@H](CO)Cn1cnc2c(N)ncnc21	47	33	40	25	12.5	12.5	> 100
O=C(C1CCCCC1)N1CC(=O)N2CCc3ccccc3C2C1 (stereo unspecified) [PRAZIQUANTEL]	100	100	100	100	100	100	0.22
